# In US10959984B2, “Methods for treating cancer with RORγ inhibitors” (THE REGENTS OF THE UNIVERSITY OF CALIFORNIA, priority 2015, dated 2021):
# Entries after “also recorded” stand apart in the source; their conditions may differ.
# Assays:
# [1] = test system: VCaP xenograft tumors; test: Spontaneous metastasis of VCaP xenografts (Alu-qPCR); assay type: in vivo, mice; conditions: treated 23 d
# Procedure: FIGS. 28A-28C show the in vivo effects of RORγ inhibition on tumor metastasis, mouse body weight and organ weight in xenograft models. FIG. 28A: Mice bearing VCaP xenografts as in FIG. 11D, treated with vehicle, SR2211, ENZ or combination for 23 d, were assessed for spontaneous metastasis to the femur (bone marrow) and liver. Genomic DNA isolated from these sites was analyzed for metastasized cells by measuring human Alu sequence (by Alu-qPCR). FIG. 28B: Body weight of mice from different treatment groups. FIG. 28C: Weight of indicated tissues from mice treated with vehicle or SR2211 for 24 days as in FIG. 11A of C4-2B xenograft model. Significance was calculated using Student's t-test, *p=0.01, n=6.
# [2] = test system: 22Rv1 xenografts; test: 22Rv1 xenograft tumor growth; assay type: in vivo, mice; conditions: nude mice; SR2211 5 mg/kg i.p., 8k/E11 10 and 20 mg/kg i.p., five times per week (FIG. 3A)
# Procedure: Four-week-old male SCID C.B17 mice (for C4-2B and VCaP) or BALB/c nu/nu athymic mice (for 22Rv11 and PC-3) were purchased from Harlan Inc. For establishing tumors, 2×10^6 cells were suspended in total of 100 μL PBS/Matrigel (1:1) and implanted subcutaneously into the dorsal flank on both sides of the mice. Animal group size of six or more was estimated to have a high statistic power, based on power calculation (http://www.biomath.info/power/) and previous studies involving the same xenograft models^34,68. When the tumor volume was approximately 80 mm^3, the mice were randomized and then treated intraperitoneally (i.p.) with 100 μl of either vehicle or RORγ antagonists SR2211, XY011/8k (in a formulation of 15% Cremophor EL, Calbiochem, 82.5% PBS, and 2.5% DMSO) for five times per week. Tumor growth was monitored by calipers with volume calculated using the equation: (π/6 (length×width2)). Body weight during the course of the study was also monitored. At the end of the studies mice were killed and tumors were dissected and weighed. Additionally, prostate, seminal vesicle, testis, kidney, heart, lung, liver, epididymal fat pad and spleen were harvested and weighed. To assess the effect of combining RORγ antagonists and ENZ on the growth of castrated-resistant VCaP xenografts (CRPC-VCaP), first, SCID C.B17 mice were injected with VCaP cells as above to establish the tumors. Then, mice bearing tumors of approximately 180 mm^3 were surgically castrated. They were then observed for tumor regression. Once tumors grew back to the pre-castration size, mice were randomized and treated with vehicle, 5 mg kg^−1 SR2211, 10 mg […] ENZ or a combination of 5 mg kg^−1 SR2211 and 10 mg kg^−1 ENZ. ENZ was given by oral gavage as previously described^68 and SR2211 was administered i.p as above. Mice were excluded from the study if bearing no tumor or tumor with size twice larger or smaller than the mean, at the time of randomization.
# [3] = test system: MCF-7-TamR cell line; test: Growth of tamoxifen-resistant breast cancer cells; assay type: cell-based, human; conditions: MCF-7 TamR cells, in combination with tamoxifen
# Procedure: (§1) Using a CellTiter-GLO assay, the viability of cells of different cancer types was measured after treatment with different concentrations of RORγ small molecule inhibitors for 4 days.
# [4] = test system: HER2-positive cells, such as SKBR3 and HCC1954; test: CellTiter-GLO viability, HER2-positive breast cancer cells; assay type: cell-based, human; conditions: SKBR3 and HCC1954, 4 days
# Procedure: (§2) For cell viability, cells were seeded in 96-well plates at 1500-2500 cells per well (optimum density for growth) in a total volume of 100 μl media. Serially diluted compounds in […] of media were added to the cells 12 hours later. After 4 days of incubation, Cell-Titer GLO reagents (Promega) were added and luminescence was measured on GLOMAX microplate luminometer (Promega), according to the manufacturer's instructions. All experimental points were set up as sextuplicate as biological replication and the entire experiments were repeated three times. The data are presented as percentage of viable cells with vehicle treated cells set as 100. The estimated in vitro IC50 values were calculated using GraphPad Prism 6 software.
# as §1
# [5] = test system: AR-positive PCa cells; test: Prostate cancer cell growth and survival (cell viability / cell growth); assay type: cell-based, human
# Procedure: as §2
# For apoptosis, Terminal deoxynucleotidyl transferase-mediated dUTP nick end labeling (TUNEL) was performed by using in situ cell death detection kit (Roche) as previously described^56. The results are expressed as a percentage of apoptotic cell number/total cell number. Caspase-3/7 activity was measured using a luminescent caspase-Glo 3/7 assay kit (Promega Corporation, Madison, USA) following the manufacturer's instructions. For cell growth, cells were seeded in 6-well plates at 2×10^5 per well and treated as indicated. Total viable cell numbers were counted using a Coulter cell counter. For colony formation, 800 cells were seeded in a well of 6-well plates and cultured for 14 days with the medium changed every 3 days. When the cell clone grew visible, the medium was removed and the cells were fixed with […] formalin for 10 minutes. Then the plates were washed with PBS for two times and the cell colonies were stained with 0.2% crystal violet (in 10% formalin) for 15 minutes. The numbers of cell colonies were counted after washed 5 times by PBS. The above assays were performed in triplicates and the entire experiments were repeated three times.
# [6] = test system: LNCaP cells; test: Cell viability (Cell-Titer GLO), 4 days; assay type: cell-based; conditions: Homo sapiens, 96 h, treated for 4 days, read-out: IC50 (growth inhibition)
# Procedure: as §2
# [7] = test system: AR; test: Anti-AR ChIP-seq; assay type: cell-based, human; conditions: C4-2B cells, 5 μM, 24 hours
# Procedure: C4-2B cells were treated with vehicle or SR2211 (5 μM) for 24 hours before harvested for ChIP-seq. ChIP-seq experiments were performed as described^65. Anti-AR ChIP-seq was repeated in two independent experiments. Antibodies used were against AR (Santa Cruz; sc-815); RNA Pol II (Santa cruz; sc-899); H3K4me2 (Abcam ab32356); H3K4me3 (Abcam; ab8580); H3 (acetyl K27) (Abcam; ab4729). Libraries were quantified with the Bioanalyzer 2100 (Agilent) and sequenced on the Illumina HiSeq 2000 Sequencer (BGI, Hong Kong). Sequencing tags were mapped against the Homo sapiens (Human) reference genome (hg19) using Bowtie 2^66. Uniquely mapped tags were used for peak calling by MACS(2.1.0)^67 to identify regions of ChIP-Seq enrichment over background. A q value threshold of enrichment of 5×10^−2 was used for all data sets. Normalized genome-wide signal coverage tracks from raw read alignment files were built by MACS2, UCSC tools (http://hgdownload.cse.ucsc.edu/admin/exe/linux.x86_64/bedGraphToBigWig/bedClip) and bedTools (http://code.google.com/p/bedtools/). Visualization of ChIP-seq signal at enriched genomic regions (avgprof and heatmap) was achieved by using ngs.plot (https://github.com/shenlab-sinai/ngsplot). ChIP-seq data have been deposited to NCBI-GEO with accession code GSE72714.
structure (smiles),measurement,setting,value
"OC(c1ccc(-c2ccc(CN3CCN(Cc4ccncc4)CC3)cc2)c(F)c1)(C(F)(F)F)C(F)(F)F [SR2211, 2-Fluoro-4′-[[4-(4-pyridinylmethyl)-1-piperazinyl]methyl]-a,a-bis (trifluoromethyl)-[1,1′-biphenyl]-4-methanol]",metastasis to femur bone and liver,[1],strongly inhibited the metastasis to femur bone and liver
same,growth of xenograft tumors,[2],strongly inhibited growth of xenograft tumors
same,sensitization of tamoxifen-resistant breast cancer cells to tamoxifen,[3],able to sensitize tamoxifen-resistant breast cancer cells to tamoxifen; also recorded: sensitized MCF-7 TamR cells to tamoxifen
same,inhibition of HER2-positive cells,[4],relatively strong inhibition
same,growth inhibition in other AR-positive PCa cell models,"[5]; 22Rv1, VCaP, LNCaP, LAPC4 and PC346C",strong growth inhibition
same,inhibition of AR-positive PCa cell growth and survival,[5]; different cell line models,potent inhibition of AR-positive PCa cell growth and survival
same,IC50,[6],1.5 µM
same,genome-wide AR binding to its target loci,[7],dramatic inhibition of genome-wide AR binding
